According to patent US12624019B2, “Indazole derivative, and preparation method therefor and use thereof” (Leadingtac Pharmaceutical (Shaoxing) Co., Ltd., priority 2020, dated 2026):

Target: T1, IRAK4 kinase protein in THP-1 cells (Homo sapiens, UniProt Q9NWZ3)
T1 construct: endogenous in cells; host or cells: THP-1 cells
T1 sequence (Q9NWZ3 1-460): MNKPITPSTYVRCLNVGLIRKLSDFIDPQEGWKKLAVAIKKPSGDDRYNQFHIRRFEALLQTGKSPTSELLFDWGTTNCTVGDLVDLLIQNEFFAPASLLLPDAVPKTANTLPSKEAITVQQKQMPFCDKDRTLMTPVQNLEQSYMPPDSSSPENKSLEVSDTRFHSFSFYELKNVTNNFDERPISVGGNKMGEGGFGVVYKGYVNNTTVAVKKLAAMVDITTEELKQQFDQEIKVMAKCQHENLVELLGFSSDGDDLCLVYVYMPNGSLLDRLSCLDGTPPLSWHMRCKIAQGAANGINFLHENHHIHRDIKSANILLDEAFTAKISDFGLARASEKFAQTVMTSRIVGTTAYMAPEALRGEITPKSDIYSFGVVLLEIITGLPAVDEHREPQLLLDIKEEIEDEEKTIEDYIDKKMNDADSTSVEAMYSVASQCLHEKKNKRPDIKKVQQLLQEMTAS
Assay: Degradation of IRAK4 in THP-1 cells by Western Blot
Format: cell-based
Details: 24 hours
Procedure: Each well of the 24-well cell culture plate was inoculated with 0.95 mL THP-1 cells (stem cell bank of Chinese academy of sciences) with a cell density of 5×10^5 cells/well. The cell plate was placed in a 5% carbon dioxide incubator and cultured overnight at 37° C., then 50 μL compound in dimethyl sulfoxide was added. The final concentration of the compound was in the range of 1-3000 nM. After continuous cultivation for 24 hours, the cells were collected into a 1.5 mL centrifuge tube, centrifuged at 1000 rpm and 4° C. for 5 minutes. Cell precipitation was washed twice with 1×DPBS, resuspended cells were lysed with 200 μL lysate (cell lysate was Western and IP cell lysate (Beyotime), supplemented with 1 mM mixture of phenylmethylsulfonyl fluoride and protease inhibitor (Beyotime)), left on ice for 30 minutes, then centrifuged at 14000 g at 4° C. for 10 minutes, and the supernatant was taken to detect IRAK4 protein level by Western blot.
The total protein concentration in the supernatant of cell lysis was determined by BCA protein quantitative kit (Tiangen). According to the concentration of total protein detected by BCA, the supernatant was adjusted to […] with PBS and 5×SDS-PAGE protein loading buffer (Beyotime), bathed in water at 100° C. for 10 minutes, then placed in ice bath for 5 minutes, centrifuged at 14000 g and 4° C. for 5 minutes, and then collected as WB loading sample. Prefabricated glue (KeyGEN) was used for protein electrophoresis with a loading amount of 10 μL (total protein 2 μg). After Tris-MOPS-SDS electrophoresis solution (Adamas), 120V constant pressure electrophoresis was performed. After electrophoresis, the protein on the adhesive strip was transferred to PVDF membrane with a constant current of […] for 50 minutes. After the membrane was transferred, the membrane was added in 1×QuickBlock blocking buffer (Beyotime) and incubated for 30 minutes at room temperature. After blocking, PVDF membranes were incubated with IRAK4 primary antibody (Abcam) overnight at 4°, the membranes were washed with TBST buffer (2.4 g Tris, 8.8 g NaCl, 1.5 mL Tween 20, pH adjusted to 7.4, constant volume to 1 L) for 30 minutes, incubated with secondary antibody (Abcam) for 2 hours at room temperature, finally incubated with Clarity Western ECL Substrate (BIO-RAD) for 5 minutes for luminescence development, chemiluminescence imaging system (Clinx, chemiScope 6200 Touch) was used for development and protein mapping photography. The protein map was analyzed by Clinx chemiluminescence analysis software for grayscale values. Using the formula: grayscale correction value=(target protein grayscale value/corresponding internal reference grayscale value)×[…], the grayscale correction value of each sample was calculated. The degradation rate was calculated by comparing with the grayscale correction value of the control group. Furthermore, DC50 and Dmax values of the compound were obtained by the nonlinear curve fitting with the logarithmic concentration-inhibition rate by GraphPad Prism 7.

Q: Which results are given for CC(C)(O)c1cc2nn(C3CCN(CCCC4CCN(c5ccc6c(c5)C(=O)N(C5CCC(=O)NC5=O)C6=O)CC4)CC3)cc2cc1NC(=O)c1cccc(C(F)(F)F)n1 (stereo not shown) [Example 6, N-(2-(1-(3-(1-(2-(2,6-dioxopiperidin-3-yl)-1,3-dioxoisoindolin-5-yl)piperidin-4-yl)propyl)piperidin-4-yl)-6-(2-hydroxyprop-2-yl)-2H-indazol-5-yl)-6-(trifluoromethyl) pyridinecarboxamide]?
A: DC50 (IRAK4 degradation in THP-1 cells, read-out: WB DC50): 11.9 nM; Dmax (IRAK4 degradation in THP-1 cells, read-out: WB Dmax): 90.9%; WB D(%) (300 nM) (degradation percentage of IRAK4 in THP-1 cells, compound 300 nM): 89.5%; WB D(%) (1000 nM) (degradation percentage of IRAK4 in THP-1 cells, compound 1000 nM): 87.3%
